# From patent US11479604B2, “Immunomodulatory peptides and methods for modulating the immune system in a subject” (Recepta Biopharma S.A., priority 2017, dated 2022)
# Columns and labels:
# [1] = system: B16F10-Nex2 tumor cells; experiment: Metastatic melanoma model in immunodeficient mice; type: in vivo, NOD/Scid/IL-2R-gamma^null mice; conditions: 250 μg i.p. on days 1-11, lungs on day 22
# Experimental: B16F10-Nex2 tumor cells (2×10^5) in RPMI (100 μl) were injected in both animal groups in the tail veins on day 0. Animals were sacrificed on day 22, or 10 days after the last administration of the peptide, and their lungs were examined for dark melanotic nodules.
# [2] = system: B16F10-Nex2 melanoma cells; experiment: Therapeutic adoptive transfer of peptide-stimulated dendritic cells, metastatic melanoma; type: in vivo, syngeneic mice; conditions: DCs administered 8 days after melanoma challenge; compared to unstimulated or Rb10A1 treated DCs
# Source text: DCs were inoculated s.c. in syngeneic mice, 8 days after the melanoma tumor cell challenge. The B16F10-Nex2 cell lysate was not used to prime DCs in this assay to avoid excess tumor antigen derived from tumor cell lysis in vivo, and a tolerogenic response. Lung nodules of melanoma cells injected i.v. and formed after 7 days and after 12 days, from 3 independent experiments were combined to represent colonization clusters for comparison with the therapeutic experiment of FIG. 6C.
# [3] = system: splenocytes; experiment: Splenocyte cytokine production in melanoma-bearing treated mice (ELISA); type: in vivo; conditions: 300 μg i.p. 5 consecutive days
# Experimental: Mice were challenged with 5×10^5 B16F10-Nex2 cells via the i.v. route. […] Peptides at 300 μg solubilized in 10 μl distilled H2O and 90 μl of PBS were injected via i.p. route per animal, for 5 consecutive days initiating one day after tumor cell challenge. Seventeen days after tumor challenge mice were sacrificed and spleens were removed. Splenocytes after incubation in hemolysis buffer were suspended in R10 medium and plated in 6-well plates and 10^6 cells/well. Cells were incubated for 72 h with or without tumor cell lysate (from 10^5 B16F10-Nex2 cells) in triplicate. The supernatants were collected, and cytokines measured by ELISA (FIG. 11).
# [4] = system: bone marrow derived dendritic cells; experiment: CD74 receptor expression in myeloid dendritic cells; type: cell-based, mouse; conditions: murine dendritic cells
# Experimental: After incubation the cells were stimulated with or without LPS (Sigma-Aldrich, Missouri, USA), at 200 ng/ml or tumor lysate (B16F10-Next cells) in the proportion of 30 DCs to 1 tumor cell, for 24 h. After incubation, the cells were harvested and stained with anti-CD74 (BV786) from BD Bioscience. Stained cells were acquired using LSRFortessa™ (Becton Dickinson, San Jose, Calif., USA) and data analysis was performed using the FlowJo V10 (TreeStar Inc., Ashland, Oreg., USA). The results are represented as percentage of CD74^+ cells in CD11b^+CD11c^+ or CD11c^+MHCII^+ population.
# Protein lysates were separated by electrophoresis, and immunoblotting analyses were performed for: total AKT, total p44/42 MAPK (ERK1/2), total IKKα, total IkBα, total NF-kB p65, phospho-AKT (Ser473), phospho-ERK1/2 (Thr202/Tyr204), phospho-IKKα/β (Ser176/180), phospho-IkBα (Ser32) and phospho-NFkB p65 (Ser536). GAPDH was assayed for loading control. HRP-conjugated secondary antibodies were used, followed by incubation with the ECL substrate (Millipore, Billerica, Mass.). All primary and secondary antibodies were purchased from Cell Signaling Technologies (Beverly, Mass., USA). Anti-CD74 receptor was also assayed (Abcam, Cambridge, UK). Phosphorylation ratios were quantified using ImageJ software. Results are represented in arbitrary units normalized to untreated control lanes.
# [5] = system: mo-DC obtained from cancer patients' monocytes; experiment: Allogeneic T cell proliferation induced by cancer patients' mo-DC; type: cell-based, human
# Experimental: Mo-DC were co-cultured with allogeneic lymphocytes (DC:Ly=1:30) to evaluate their ability to induce lymphocyte proliferation. This was measured by carboxyfluorescein succinimidyl ester (CFSE—Molecular Probes) dilution and activation measured by correlation among CD4/CD25 and Foxp3 expression (Clavijo-Salomon et al., 2016).
# Since it is well known that mo-DC from cancer patients can be functionally biased, but are not always so, the patients were separated into two groups, according to their mo-DC ability to induce allogeneic T cell proliferation. Patients whose mo-DC induced less than 35% of the phytohemagglutinin A (PHA)-induced response constituted one group (“defective”) and those whose mo-DC induced a response higher than 35% of the PHA response, the other (“normal”).
substance,measurement,setting,value
"[CARGETARATFAYWGQGC], NH2 (C-C) [Rb9]",protection against lung nodules,[1],No protection
same,protection by peptide-stimulated DCs (lung nodules),[2],significant protection
same,IL-12 production in splenocytes,[3]; no stimulus necessary,comparable in the three groups
same,IFN-gamma production in splenocytes,"[3]; splenocytes with tumor cell lysate 72 h, relative to untreated control",increased
same,IL-10 production in splenocytes,[3]; with tumor cell lysate,no effect
same,TNF-alpha production in splenocytes,[3]; with tumor cell lysate,no effect
same,IL-6 production in splenocytes,"[3]; with tumor cell lysate, relative to untreated control",decreased
same,expression of CD74 in CD11b+CD11c+ and CD11c+MHC-II+ cells,[4],increased expression
same,"ability of ""defective"" mo-DC to induce allogeneic T cell proliferation",[5],enhanced the ability
same,"lympho-stimulatory activity of ""normal"" mo-DC",[5],inhibited the lympho-stimulatory activity
